From article PMC5007552, “The hVps34‐SGK3 pathway alleviates sustained PI3K/Akt inhibition by stimulating mTORC1 and tumour growth” (The EMBO Journal, 2016)
“And” between values parts separate entries of the source, which are not always exact repeats. Identical values can stand only once.

Test system: ZR-75-1 cells
Test: NanoString human kinome mRNA quantification
Format: cell-based
Text: Human mRNAs were hybridised to NanoString human kinome and control code sets, then subjected to quantification using NanoString software. […] To permit data compaction, and simple kinome‐wide comparisons, the fold changes are log2 transformed. […] Cell pellets were resuspended at a concentration of ~6,500 cells/μl in RLT buffer (Qiagen). […] For total copy numbers, triplicate normalised count values were averaged, and to calculate fold induction, means were divided by triplicate mean values from matched DMSO controls. P‐values were calculated using unpaired t‐test (GraphPad Prism software) by employing treated and control count data for each kinase mRNA.

Q: With `NC1(c2ccc(-c3nc4ccn5c(=O)[nH]nc5c4cc3-c3ccccc3)cc2)CCC1` [MK-2206] as the compound, how does the “MAST2 Normalised counts (single replicates)” value (MAST2 mRNA, replicates 1-3) read?
A: 738.65 and 699.23 and 725.5

Q: What about the “MAST3 Normalised counts (single replicates)” value (MAST3 mRNA, replicates 1-3) of the same compound?
A: 218.81

Q: And the “MAST4 Normalised counts Average” value (MAST4 mRNA, average of 3)?
A: 166.143

Q: And the “MAST4 Normalised counts (single replicates)” value (MAST4 mRNA, replicates 1-3)?
A: 166 and 165.82 and 166.61

Q: And the “MASTL Normalised counts Average” value (MASTL mRNA, average of 3)?
A: 679.5

Q: And the “MASTL Normalised counts (single replicates)” value (MASTL mRNA, replicates 1-3)?
A: 701.38 and 631.47 and 705.65

Q: And the “MATK Normalised counts (single replicates)” value (MATK mRNA, replicates 1-3)?
A: 210.28

Q: And the “MERTK Normalised counts Average” value (MERTK mRNA, average of 3)?
A: 1

Q: What about the “MERTK Normalised counts (single replicates)” value (MERTK mRNA, replicates 1-3) of the same compound?
A: 1

Q: And the “MET Normalised counts Average” value (MET mRNA, average of 3)?
A: 45.06

Q: What about the “MET Normalised counts (single replicates)” value (MET mRNA, replicates 1-3) of the same compound?
A: 44.2 and 35.51 and 55.47

Q: What about the “MINK1 Normalised counts Average” value (MINK1 mRNA, average of 3) of the same compound?
A: 1315.77

Q: What about the “MINK1 Normalised counts (single replicates)” value (MINK1 mRNA, replicates 1-3) of the same compound?
A: 1338.56 and 1283.89 and 1324.87

Q: And the Average normalised counts (MKNK1 mRNA)?
A: 747.723

Q: What about the Average normalised counts (MKNK2 mRNA) of the same compound?
A: 1542.12

Q: What about the Average normalised counts (MLKL mRNA) of the same compound?
A: 206.987

Q: And the Average normalised counts (MOK mRNA)?
A: 276.793

Q: And the Average normalised counts (MOS mRNA)?
A: 1.463

Q: And the Average normalised counts (MST1R mRNA)?
A: 587.597

Q: What about the Average normalised counts (MST4 mRNA) of the same compound?
A: 1197.2

Q: What about the Average normalised counts (MTOR mRNA) of the same compound?
A: 1169.76

Q: And the Average normalised counts (MUSK mRNA)?
A: 1

Q: What about the Average normalised counts (MYLK2 mRNA) of the same compound?
A: 3.573

Q: And the Average normalised counts (MYLK3 mRNA)?
A: 4.65

Q: And the Average normalised counts (MYLK4 mRNA)?
A: 3.183

Q: What about the Average normalised counts (MYLK mRNA) of the same compound?
A: 35.0933

Q: What about the Average normalised counts (MYO3B mRNA) of the same compound?
A: 1.693

Q: And the Average normalised counts (NEK1 mRNA)?
A: 126.33

Q: And the Average normalised counts (NEK2 mRNA)?
A: 1658.91

Q: And the Average normalised counts (NEK3 mRNA)?
A: 279.833

Q: And the Average normalised counts (NEK5 mRNA)?
A: 63.3867

Q: And the Average normalised counts (NEK6 mRNA)?
A: 316.677

Q: What about the Average normalised counts (NEK7 mRNA) of the same compound?
A: 1505.67

Q: And the Average normalised counts (NEK8 mRNA)?
A: 178.517

Q: And the Average normalised counts (NEK9 mRNA)?
A: 368.757

Q: What about the Average normalised counts (NEK10 mRNA) of the same compound?
A: 2.217

Q: And the Average normalised counts (NIM1 mRNA)?
A: 1.163

Q: What about the Average normalised counts (NLK mRNA) of the same compound?
A: 173.16

Q: What about the Average normalised counts (NPR1 mRNA) of the same compound?
A: 1

Q: And the Average normalised counts (NPR2 mRNA)?
A: 1

Q: What about the Average normalised counts (NRBP1 mRNA) of the same compound?
A: 1653.03

Q: And the Average normalised counts (NRBP2 mRNA)?
A: 1124.63

Q: And the Average normalised counts (NRK mRNA)?
A: 29.1233

Q: And the Average normalised counts (NTRK1 mRNA)?
A: 2.95

Q: What about the Average normalised counts (NTRK2 mRNA) of the same compound?
A: 77.2267

Q: What about the Average normalised counts (NTRK3 mRNA) of the same compound?
A: 11.2267

Q: And the Average normalised counts (NUAK1 mRNA)?
A: 101.57

Q: And the Average normalised counts (NUAK2 mRNA)?
A: 96.2433

Q: And the Average normalised counts (OBSCN mRNA)?
A: 96.8

Q: What about the Average normalised counts (OXSR1 mRNA) of the same compound?
A: 220.06

Q: What about the Average normalised counts (PAK1 mRNA) of the same compound?
A: 710.853

Q: What about the Average normalised counts (PAK2 mRNA) of the same compound?
A: 2547.5

Q: And the Average normalised counts (PAK3 mRNA)?
A: 3.48

Q: And the Average normalised counts (PAK4 mRNA)?
A: 1206.53

Q: And the Average normalised counts (PAK6 mRNA)?
A: 64.56

Q: What about the Average normalised counts (PAK7 mRNA) of the same compound?
A: 2.957

Q: What about the Average normalised counts (PAN3 mRNA) of the same compound?
A: 788.86

Q: What about the “ROCK2 normalised counts, average” value (ROCK2 mRNA, average of 3 replicates) of the same compound?
A: 1654.49

Q: And the ROCK2 normalised counts (ROCK2 mRNA, single replicates)?
A: 1580.35 and 1693.07 and 1690.04

Q: And the “ROR1 normalised counts, average” value (ROR1 mRNA, average of 3 replicates)?
A: 3.17

Q: What about the ROR1 normalised counts (ROR1 mRNA, single replicates) of the same compound?
A: 1.48 and 3.37 and 4.66

Q: What about the “ROR2 normalised counts, average” value (ROR2 mRNA, average of 3 replicates) of the same compound?
A: 177.843

Q: What about the ROR2 normalised counts (ROR2 mRNA, single replicates) of the same compound?
A: 183.27 and 188.41 and 161.85

Q: And the “ROS1 normalised counts, average” value (ROS1 mRNA, average of 3 replicates)?
A: 1

Q: And the ROS1 normalised counts (ROS1 mRNA, single replicates)?
A: 1

Q: What about the “RPS6KA1 normalised counts, average” value (RPS6KA1 mRNA, average of 3 replicates) of the same compound?
A: 743.577

Q: What about the RPS6KA1 normalised counts (RPS6KA1 mRNA, single replicates) of the same compound?
A: 752.28 and 733.11 and 745.34

Q: What about the “RPS6KA2 normalised counts, average” value (RPS6KA2 mRNA, average of 3 replicates) of the same compound?
A: 42.18

Q: And the RPS6KA2 normalised counts (RPS6KA2 mRNA, single replicates)?
A: 39.65 and 43.33 and 43.56

Q: And the “RPS6KA3 normalised counts, average” value (RPS6KA3 mRNA, average of 3 replicates)?
A: 81.17

Q: And the RPS6KA3 normalised counts (RPS6KA3 mRNA, single replicates)?
A: 77.83 and 82.42 and 83.26

Q: And the “RPS6KA4 normalised counts, average” value (RPS6KA4 mRNA, average of 3 replicates)?
A: 830.71

Q: And the RPS6KA4 normalised counts (RPS6KA4 mRNA, single replicates)?
A: 858.63 and 809.56 and 823.94

Q: And the “RPS6KA5 normalised counts, average” value (RPS6KA5 mRNA, average of 3 replicates)?
A: 131.06

Q: And the RPS6KA5 normalised counts (RPS6KA5 mRNA, single replicates)?
A: 126.01 and 136.28 and 130.89

Q: What about the “RPS6KA6 normalised counts, average” value (RPS6KA6 mRNA, average of 3 replicates) of the same compound?
A: 136.14

Q: And the RPS6KA6 normalised counts (RPS6KA6 mRNA, single replicates)?
A: 127.82 and 135.42 and 145.18

Q: What about the “RPS6KB1 normalised counts, average” value (RPS6KB1 mRNA, average of 3 replicates) of the same compound?
A: 1559.99

Q: And the RPS6KB1 normalised counts (RPS6KB1 mRNA, single replicates)?
A: 1574.89 and 1571.44 and 1533.65

Q: What about the “RPS6KB2 normalised counts, average” value (RPS6KB2 mRNA, average of 3 replicates) of the same compound?
A: 3538.09

Q: And the RPS6KB2 normalised counts (RPS6KB2 mRNA, single replicates)?
A: 3546.44 and 3576.5 and 3491.33

Q: And the “RPS6KC1 normalised counts, average” value (RPS6KC1 mRNA, average of 3 replicates)?
A: 1368.65

Q: And the RPS6KC1 normalised counts (RPS6KC1 mRNA, single replicates)?
A: 1361.29 and 1349.92 and 1394.73

Q: What about the “RPS6KL1 normalised counts, average” value (RPS6KL1 mRNA, average of 3 replicates) of the same compound?
A: 85.8967

Q: And the RPS6KL1 normalised counts (RPS6KL1 mRNA, single replicates)?
A: 86.01 and 87.63 and 84.05

Q: And the “RYK normalised counts, average” value (RYK mRNA, average of 3 replicates)?
A: 1136.11
